{"source": "patent US20260327204A1", "about": "“DEGRADERS OF CYCLIN-DEPENDENT KINASE 12/13, COMPOSITIONS, AND USES THEREOF” (ZHEJIANG UNIVERSITY, priority 2023, published 2026)", "key": {"CDK13 [1]": {"biological_target": "T1, CDK13 (Homo sapiens, UniProt Q14004)", "T1 sequence (Q14004 whole entry)": "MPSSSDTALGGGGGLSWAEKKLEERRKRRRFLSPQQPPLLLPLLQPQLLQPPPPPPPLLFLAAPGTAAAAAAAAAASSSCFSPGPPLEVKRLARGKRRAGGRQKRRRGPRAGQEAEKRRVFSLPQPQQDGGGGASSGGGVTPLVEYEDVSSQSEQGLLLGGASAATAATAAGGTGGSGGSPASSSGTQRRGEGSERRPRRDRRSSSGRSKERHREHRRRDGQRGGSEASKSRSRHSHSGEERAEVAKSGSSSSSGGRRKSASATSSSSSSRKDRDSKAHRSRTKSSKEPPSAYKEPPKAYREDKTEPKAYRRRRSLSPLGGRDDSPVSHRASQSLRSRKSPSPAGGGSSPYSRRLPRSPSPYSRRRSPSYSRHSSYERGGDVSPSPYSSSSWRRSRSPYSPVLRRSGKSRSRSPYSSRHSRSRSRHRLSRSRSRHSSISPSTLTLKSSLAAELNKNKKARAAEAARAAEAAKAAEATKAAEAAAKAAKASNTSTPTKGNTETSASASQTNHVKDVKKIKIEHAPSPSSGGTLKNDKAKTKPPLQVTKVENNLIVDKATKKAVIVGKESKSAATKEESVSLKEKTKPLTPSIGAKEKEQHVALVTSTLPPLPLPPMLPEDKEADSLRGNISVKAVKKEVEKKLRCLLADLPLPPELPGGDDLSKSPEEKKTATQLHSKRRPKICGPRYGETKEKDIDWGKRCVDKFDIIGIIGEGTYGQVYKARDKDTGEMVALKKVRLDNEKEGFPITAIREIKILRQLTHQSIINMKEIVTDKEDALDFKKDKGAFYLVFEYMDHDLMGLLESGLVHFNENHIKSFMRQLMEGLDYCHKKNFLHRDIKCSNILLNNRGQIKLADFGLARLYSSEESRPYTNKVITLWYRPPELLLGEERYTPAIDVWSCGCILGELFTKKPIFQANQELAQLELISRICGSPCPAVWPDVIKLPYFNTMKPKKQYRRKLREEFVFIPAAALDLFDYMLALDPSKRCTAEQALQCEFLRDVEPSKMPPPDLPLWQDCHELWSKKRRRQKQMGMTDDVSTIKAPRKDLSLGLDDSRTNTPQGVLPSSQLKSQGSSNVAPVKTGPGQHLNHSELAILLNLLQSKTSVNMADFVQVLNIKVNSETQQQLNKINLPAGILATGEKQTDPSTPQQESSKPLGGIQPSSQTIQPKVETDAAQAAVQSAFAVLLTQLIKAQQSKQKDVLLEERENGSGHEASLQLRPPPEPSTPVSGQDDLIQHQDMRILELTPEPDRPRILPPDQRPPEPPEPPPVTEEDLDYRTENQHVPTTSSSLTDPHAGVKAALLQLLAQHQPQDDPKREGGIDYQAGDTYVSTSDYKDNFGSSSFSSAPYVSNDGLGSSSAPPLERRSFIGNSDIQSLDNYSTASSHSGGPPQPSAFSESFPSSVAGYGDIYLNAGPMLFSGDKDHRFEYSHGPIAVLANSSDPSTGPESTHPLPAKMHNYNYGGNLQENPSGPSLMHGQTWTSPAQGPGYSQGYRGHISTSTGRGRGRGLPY", "T1 sequence (O75909 whole entry partner)": "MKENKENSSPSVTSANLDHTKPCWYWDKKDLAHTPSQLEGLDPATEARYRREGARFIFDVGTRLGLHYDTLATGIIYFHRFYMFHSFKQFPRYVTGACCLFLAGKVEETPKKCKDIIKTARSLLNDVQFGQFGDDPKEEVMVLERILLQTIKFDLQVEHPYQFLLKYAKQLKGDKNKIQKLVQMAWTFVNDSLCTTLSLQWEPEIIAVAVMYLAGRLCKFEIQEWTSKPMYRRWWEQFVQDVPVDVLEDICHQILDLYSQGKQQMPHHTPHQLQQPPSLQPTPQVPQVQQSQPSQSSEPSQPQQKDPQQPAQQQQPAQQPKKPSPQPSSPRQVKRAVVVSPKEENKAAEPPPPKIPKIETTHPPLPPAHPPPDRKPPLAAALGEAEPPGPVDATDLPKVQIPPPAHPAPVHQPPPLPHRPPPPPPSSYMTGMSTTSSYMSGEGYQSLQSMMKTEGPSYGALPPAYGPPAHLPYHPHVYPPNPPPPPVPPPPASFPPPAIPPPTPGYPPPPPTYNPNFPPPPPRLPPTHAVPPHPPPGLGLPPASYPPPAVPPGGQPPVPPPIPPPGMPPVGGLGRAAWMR", "test": "Western blot degradation of CDK13 (Example 2)", "type": "cell-based", "set-up": "degradation of CDK12/13 protein in leukemia cells KASUMI-1, MV4-11, and Jurkat; endogenous in cells", "conditions": "HCT116, colorectal cancer cells"}, "[2]": {"test": "Liver microsome stability, dog", "type": "in vitro ADME", "conditions": "liver microsomes", "protocol": "(§1) • Compounds: Ketanserin, Formula 18, Formula 45 • Liver microsomes: Human liver microsomes (purchased from BioreclamationIVT); Dog, mouse, rat, and monkey liver microsomes (purchased from Xenotech)\n(§2) Preparation of 500 μM compound solution: Add 5 μL of 10 mM compound solution and 95 μL of DMSO to an EP tube.\n(§3) Preparation of solution containing 0.75 mg/mL liver microsomes and 1.5 μM compound: Add 1.5 μL of the 500 μM compound solution, 18.75 μL of the 20 mg/mL liver microsome solution, and 479.75 μL of PBS to an EP tube.\n(§4) Preparation of 6 mM NADPH solution: Dissolve 5 mg of NADPH in 1 mL of PBS solution.\n(§5) Add 30 μL of the solution containing 0.75 mg/mL liver microsomes and a concentration gradient of the compound to a 96-well plate. Add 15 μL of the 6 mM NADPH solution and 150 μL of a 1:1 acetonitrile:methanol solution containing an internal standard (IS). Vortex and centrifuge at 6,000 rpm for 10 min. 80 μL of the supernatant from each concentration sample is transferred to a 96-well plate containing 140 μL of pure water for LC/MS detection (injection volume of […]). […]\n(§6) 80 μL of the supernatant from each well is transferred to a 96-well plate containing 140 μL of pure water for LC/MS detection (injection volume of […]). The compound concentration value is determined by comparing the corresponding mass spectrometry peak area with the standard curve. […]"}, "[3]": {"test": "Liver microsome stability, rat", "type": "in vitro ADME", "conditions": "liver microsomes", "protocol": "as §1, §2, §3, §4, §5, §6"}, "CDK13 [4]": {"biological_target": "T1, CDK13", "test": "Western blot degradation of CDK13 (Example 2)", "type": "cell-based", "set-up": "degradation of CDK12/13 protein in leukemia cells KASUMI-1, MV4-11, and Jurkat; endogenous in cells"}, "[5]": {"test": "Liver microsome stability, monkey", "type": "in vitro ADME", "conditions": "liver microsomes", "protocol": "as §1, §2, §3, §4, §5, §6"}, "[6]": {"test": "Liver microsome stability, human", "type": "in vitro ADME", "conditions": "liver microsomes", "protocol": "as §1, §2, §3, §4, §5, §6"}, "CDK12": {"biological_target": "CDK12 (Homo sapiens, UniProt Q9NYV4)", "sequence (Q9NYV4 whole entry)": "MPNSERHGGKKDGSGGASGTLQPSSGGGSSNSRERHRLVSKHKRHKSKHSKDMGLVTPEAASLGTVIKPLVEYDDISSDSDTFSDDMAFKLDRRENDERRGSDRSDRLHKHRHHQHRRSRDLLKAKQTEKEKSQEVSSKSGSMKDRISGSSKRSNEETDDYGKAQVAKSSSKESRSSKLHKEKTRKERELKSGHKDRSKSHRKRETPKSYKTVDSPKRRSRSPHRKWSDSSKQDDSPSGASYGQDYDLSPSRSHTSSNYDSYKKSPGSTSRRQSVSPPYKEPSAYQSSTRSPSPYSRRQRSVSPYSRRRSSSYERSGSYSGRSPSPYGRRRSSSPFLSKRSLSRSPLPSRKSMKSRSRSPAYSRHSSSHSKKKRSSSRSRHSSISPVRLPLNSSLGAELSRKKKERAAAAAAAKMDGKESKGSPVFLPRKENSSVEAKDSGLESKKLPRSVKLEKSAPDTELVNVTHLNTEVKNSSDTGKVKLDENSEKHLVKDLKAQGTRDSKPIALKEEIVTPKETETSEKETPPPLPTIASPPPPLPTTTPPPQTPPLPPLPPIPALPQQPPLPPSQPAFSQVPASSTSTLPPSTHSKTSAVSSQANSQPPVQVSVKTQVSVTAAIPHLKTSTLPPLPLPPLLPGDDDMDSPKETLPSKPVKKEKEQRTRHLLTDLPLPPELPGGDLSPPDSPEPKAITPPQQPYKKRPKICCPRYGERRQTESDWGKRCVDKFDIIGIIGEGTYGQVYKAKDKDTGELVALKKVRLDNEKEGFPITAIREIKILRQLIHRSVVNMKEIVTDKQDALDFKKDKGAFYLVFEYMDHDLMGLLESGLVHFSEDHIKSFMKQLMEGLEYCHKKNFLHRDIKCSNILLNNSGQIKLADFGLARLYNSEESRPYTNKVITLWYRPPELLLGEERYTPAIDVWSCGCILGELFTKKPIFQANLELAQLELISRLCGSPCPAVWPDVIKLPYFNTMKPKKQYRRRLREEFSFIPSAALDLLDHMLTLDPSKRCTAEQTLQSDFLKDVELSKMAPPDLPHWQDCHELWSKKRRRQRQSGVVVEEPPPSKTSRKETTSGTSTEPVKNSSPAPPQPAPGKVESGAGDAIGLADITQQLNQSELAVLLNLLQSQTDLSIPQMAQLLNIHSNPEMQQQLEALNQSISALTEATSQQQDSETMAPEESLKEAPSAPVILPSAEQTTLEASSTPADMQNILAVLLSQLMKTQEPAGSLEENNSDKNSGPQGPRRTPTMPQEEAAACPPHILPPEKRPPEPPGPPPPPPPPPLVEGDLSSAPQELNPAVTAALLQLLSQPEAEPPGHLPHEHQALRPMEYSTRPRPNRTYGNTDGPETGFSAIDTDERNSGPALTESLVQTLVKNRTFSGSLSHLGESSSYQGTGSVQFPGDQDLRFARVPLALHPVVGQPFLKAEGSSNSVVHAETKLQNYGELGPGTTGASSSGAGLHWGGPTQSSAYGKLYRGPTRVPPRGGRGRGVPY", "sequence (O75909 whole entry partner)": "as the sequence (O75909 whole entry partner) above", "test": "Western blot degradation of CDK12 (Example 2)", "type": "cell-based", "set-up": "degradation of CDK12/13 protein in leukemia cells KASUMI-1, MV4-11, and Jurkat; endogenous in cells", "in_short": "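Leukemia lines KASUMI-1, MV4-11, Jurkat, plus MDA-MB-231 for a concentration series, treated at 0.01–3 μM for 3–48 h at 37 °C against DMSO control. Lysates in 4% SDS; CDK12/13 band intensity normalized to β-Actin or GAPDH to give degradation rate.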"}}, "note": "Read-outs that look alike come from different tables or passages of the source.", "data": [{"smiles": "Cc1ncsc1-c1ccc([C@H](C)NC(=O)[C@@H]2C[C@@H](O)CN2C(=O)[C@@H](NC(=O)CN2CCN(c3ncc(-c4ccc(N(C(=O)NCc5ccccc5)[C@H]5CC[C@H](Nc6ccc(C#N)cn6)CC5)cc4)cn3)CC2)C(C)(C)C)cc1", "note": "[Formula 45]", "values": [{"measurement": "DC50", "setting": "CDK13 [1]", "value": 24, "unit": "nM"}, {"measurement": "half-life", "setting": "[2]", "value": "> 45", "unit": "min"}, {"measurement": "half-life", "setting": "[3]", "value": "> 45", "unit": "min"}, {"measurement": "DC50", "setting": "CDK13 [4]; DC50 classes, cell line not given, read-out: CDK13 degradation Activity", "value": "< 100", "unit": "nM"}, {"measurement": "degradation of CDK13", "setting": "CDK13 [4]; FIGS. 2-9", "value": "has the strongest degradation effect"}, {"measurement": "DC50", "setting": "CDK13 [4]; KASUMI-1, leukemia cells, read-out: CDK13 DC50", "value": 17, "unit": "nM"}, {"measurement": "DC50", "setting": "CDK13 [4]; MDA-MB-231, breast cancer cells, read-out: CDK13 DC50", "value": 18, "unit": "nM"}, {"measurement": "DC50", "setting": "CDK13 [4]; MV4-11, leukemia cells, read-out: CDK13 DC50", "value": 21, "unit": "nM"}, {"measurement": "half-life", "setting": "[5]", "value": "> 45", "unit": "min"}, {"measurement": "half-life", "setting": "[6]", "value": "> 45", "unit": "min"}, {"measurement": "DC50", "setting": "CDK12; DC50 classes, cell line not given, read-out: CDK12 degradation Activity", "value": "< 100", "unit": "nM"}, {"measurement": "degradation of CDK12", "setting": "CDK12; FIGS. 2-9", "value": "has the strongest degradation effect"}, {"measurement": "DC50", "setting": "CDK12; HCT116, colorectal cancer cells, read-out: CDK12 DC50", "value": 34, "unit": "nM"}, {"measurement": "DC50", "setting": "CDK12; KASUMI-1, leukemia cells, read-out: CDK12 DC50", "value": 28, "unit": "nM"}, {"measurement": "DC50", "setting": "CDK12; MDA-MB-231, breast cancer cells, read-out: CDK12 DC50", "value": 29, "unit": "nM"}, {"measurement": "DC50", "setting": "CDK12; MV4-11, leukemia cells, read-out: CDK12 DC50", "value": 30, "unit": "nM"}]}]}
